Test results taken from paper PMC12405480, “Endogenous ligands of bovine FFAR2/GPR43 display distinct pharmacological properties” (Frontiers in Cell and Developmental Biology, 2025).

Biological target: T1, bFFAR2 (bovine FFAR2/GPR43) (Bos taurus, UniProt A0ACM8QIU6)
T1 construct: full-length synthetic cDNA, N-terminal FLAG tag; transiently expressed in HEK293A cells
T1 sequence (A0ACM8QIU6 1-329): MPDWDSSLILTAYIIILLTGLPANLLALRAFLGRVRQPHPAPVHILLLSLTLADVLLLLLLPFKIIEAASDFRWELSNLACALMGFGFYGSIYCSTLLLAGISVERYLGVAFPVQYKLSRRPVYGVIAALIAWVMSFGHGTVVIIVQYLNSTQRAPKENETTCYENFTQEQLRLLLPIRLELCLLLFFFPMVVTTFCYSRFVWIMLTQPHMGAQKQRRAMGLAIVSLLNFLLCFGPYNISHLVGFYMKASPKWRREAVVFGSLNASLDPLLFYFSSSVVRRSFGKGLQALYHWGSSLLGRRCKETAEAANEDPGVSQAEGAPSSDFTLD
Assay: BRET, mini-Gαi recruitment to bFFAR2-Rluc8, HEK293A
Type: cell-based
Details: not given
Text: BRET, mini-Gαi recruitment to bFFAR2-Rluc8, HEK293A on bFFAR2 (bovine FFAR2/GPR43)

SMILES | EC50 [µM]
CCCCCC(=O)O [C6:0] | 72.4
CCCCC(=O)O [C5:0] | 61.7
CCC(=O)O [C3:0] | 977
CCCCCCC(=O)O [C7:0] | 126

Second part, the molecule after the results:

EC50 [µM] | SMILES
9770 | CC(=O)O [C2:0]
75.9 | CC(C)CC(=O)O [3MB, 3-methyl-butanoic acid]
129 | CCCC(=O)O [C4:0]

Same assay, conditions: partial agonist; AUC over 10 min; -log10 of EC50; unreliable (EC50 above the 1 mM dose of Figure 1)

mGαi recruitment | SMILES
2.57 ± 0.40 | CCCCCCCC(=O)O [C8:0]

Biological target: T1, bFFAR2 (bovine FFAR2/GPR43)
Assay: SRE luciferase reporter gene assay, HEK293A expressing bFFAR2
Type: cell-based
Details: not given
Text: SRE luciferase reporter gene assay, HEK293A expressing bFFAR2 on bFFAR2 (bovine FFAR2/GPR43)

EC50 [µM] | SMILES
234 | CC(C)C(=O)O [2MP, 2-methyl-propanoic acid]
